Experimental data from paper PMC8820783, “In vitro and in silico studies on clinically important enzymes inhibitory activities of flavonoids isolated from Euphorbia pulcherrima” (Annals of Medicine, 2022).
Read-outs that look alike come from different tables or passages of the source.

Key:
[1] = biological target: phosphodiesterase I from Crotalus adamanteus venom (Crotalus adamanteus, UniProt J3SEZ3); test: biochemical
[2] = biological target: Jack bean (Canavalia ensiformis) urease (Canavalia ensiformis, UniProt P07374); test: biochemical
Jack bean (Canavalia ensiformis) urease, sequence (P07374 whole entry, looked up): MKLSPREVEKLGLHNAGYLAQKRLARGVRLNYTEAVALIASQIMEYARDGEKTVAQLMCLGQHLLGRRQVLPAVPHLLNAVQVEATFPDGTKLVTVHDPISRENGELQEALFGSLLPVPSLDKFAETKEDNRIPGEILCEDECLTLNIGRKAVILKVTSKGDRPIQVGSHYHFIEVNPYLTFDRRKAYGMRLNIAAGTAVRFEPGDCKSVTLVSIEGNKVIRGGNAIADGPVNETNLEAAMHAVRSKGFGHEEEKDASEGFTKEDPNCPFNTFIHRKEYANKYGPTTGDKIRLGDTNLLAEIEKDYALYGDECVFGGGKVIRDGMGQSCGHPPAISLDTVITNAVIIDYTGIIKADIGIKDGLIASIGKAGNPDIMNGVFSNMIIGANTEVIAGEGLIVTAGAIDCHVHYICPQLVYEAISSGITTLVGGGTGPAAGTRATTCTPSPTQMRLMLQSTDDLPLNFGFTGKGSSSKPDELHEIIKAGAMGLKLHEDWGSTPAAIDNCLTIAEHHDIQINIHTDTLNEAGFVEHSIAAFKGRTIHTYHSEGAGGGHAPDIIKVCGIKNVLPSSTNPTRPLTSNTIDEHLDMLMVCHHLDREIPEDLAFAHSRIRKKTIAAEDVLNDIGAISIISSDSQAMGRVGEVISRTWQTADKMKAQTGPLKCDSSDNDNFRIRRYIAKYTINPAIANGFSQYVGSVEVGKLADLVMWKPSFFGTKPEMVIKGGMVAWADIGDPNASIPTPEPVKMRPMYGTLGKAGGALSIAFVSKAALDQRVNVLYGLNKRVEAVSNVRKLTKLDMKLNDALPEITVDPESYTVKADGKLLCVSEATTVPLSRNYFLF

[3] = biological target: bovine serum albumin (BSA) glycation by MGO (Bos taurus, UniProt P02769); test: Anti-glycation inhibition (BSA-MGO fluorescence); assay type: biochemical; settings: 37 °C, 9 days; for IC50: read-out: IC50 ± S.E. (antiglycation)
bovine serum albumin (BSA) glycation by MGO, sequence (P02769 25-607): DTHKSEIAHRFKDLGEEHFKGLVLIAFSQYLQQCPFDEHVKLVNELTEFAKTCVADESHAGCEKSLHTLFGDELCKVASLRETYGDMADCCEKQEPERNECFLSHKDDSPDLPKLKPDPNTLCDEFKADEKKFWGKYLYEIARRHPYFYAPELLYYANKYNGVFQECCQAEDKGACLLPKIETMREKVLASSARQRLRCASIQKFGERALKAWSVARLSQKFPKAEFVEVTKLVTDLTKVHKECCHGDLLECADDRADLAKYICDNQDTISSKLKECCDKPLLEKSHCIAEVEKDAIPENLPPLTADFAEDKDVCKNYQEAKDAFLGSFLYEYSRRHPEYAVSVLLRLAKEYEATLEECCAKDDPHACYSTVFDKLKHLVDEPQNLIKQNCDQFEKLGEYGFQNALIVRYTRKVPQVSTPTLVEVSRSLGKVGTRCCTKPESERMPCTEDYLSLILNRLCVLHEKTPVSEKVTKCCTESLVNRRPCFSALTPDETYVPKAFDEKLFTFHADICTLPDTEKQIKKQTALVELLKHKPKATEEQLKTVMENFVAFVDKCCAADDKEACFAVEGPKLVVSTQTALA
Procedure: After incubation, glycation of protein was measured using fluorescence (emission, 440 nm; excitation, 330 nm), against a blank, and using a microtiter plate spectrophotometer (Spectra Max, Molecular Devices, Sunnyvale, CA).

[4] = biological target: T1, mushroom tyrosinase (Agaricus bisporus, UniProt C7FF04); test: Tyrosinase inhibition (L-DOPA, 96-well); assay type: biochemical; settings: L-DOPA substrate, read-out: IC50 ± S.E. (tyrosinase)
T1 construct: purchased Sigma-Aldrich T3824; host or cells: mushroom (natural source)
T1 sequence (C7FF04 1-392 limits assumed): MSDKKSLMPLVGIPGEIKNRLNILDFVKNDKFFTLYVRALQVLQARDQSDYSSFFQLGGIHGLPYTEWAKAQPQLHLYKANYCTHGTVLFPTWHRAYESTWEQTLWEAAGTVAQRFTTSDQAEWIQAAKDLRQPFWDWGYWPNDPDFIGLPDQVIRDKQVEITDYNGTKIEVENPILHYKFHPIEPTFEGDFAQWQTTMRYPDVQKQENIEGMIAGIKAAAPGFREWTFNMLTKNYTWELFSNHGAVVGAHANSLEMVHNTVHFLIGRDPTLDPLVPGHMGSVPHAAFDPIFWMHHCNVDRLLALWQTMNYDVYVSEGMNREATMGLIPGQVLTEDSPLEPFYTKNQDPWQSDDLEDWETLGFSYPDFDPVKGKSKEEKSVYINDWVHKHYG
Procedure: According to this method, the tested compounds (10 µL) was carefully transfer into a 96-well microplate, mixed with 10 µL mushroom tyrosinase and buffer solution 60 µL. After incubation, 20 µL of 3,4-dihydroxy-l-phenylalanine (L-DOPA) in phosphate buffer was blended, and some amount of dopachrome was added into the reaction mixture. The effect was checked by spectrophotometry at 450 nm with (OD480) (optical density, OD). EZ-Fit software was used to measure the IC50 values in µM. The % inhibition was calculated by using following formula. Percent inhibition=100−OD test well/OD control×100

phosphodiesterase I from Crotalus adamanteus venom, sequence (J3SEZ3 24-851 limits assumed): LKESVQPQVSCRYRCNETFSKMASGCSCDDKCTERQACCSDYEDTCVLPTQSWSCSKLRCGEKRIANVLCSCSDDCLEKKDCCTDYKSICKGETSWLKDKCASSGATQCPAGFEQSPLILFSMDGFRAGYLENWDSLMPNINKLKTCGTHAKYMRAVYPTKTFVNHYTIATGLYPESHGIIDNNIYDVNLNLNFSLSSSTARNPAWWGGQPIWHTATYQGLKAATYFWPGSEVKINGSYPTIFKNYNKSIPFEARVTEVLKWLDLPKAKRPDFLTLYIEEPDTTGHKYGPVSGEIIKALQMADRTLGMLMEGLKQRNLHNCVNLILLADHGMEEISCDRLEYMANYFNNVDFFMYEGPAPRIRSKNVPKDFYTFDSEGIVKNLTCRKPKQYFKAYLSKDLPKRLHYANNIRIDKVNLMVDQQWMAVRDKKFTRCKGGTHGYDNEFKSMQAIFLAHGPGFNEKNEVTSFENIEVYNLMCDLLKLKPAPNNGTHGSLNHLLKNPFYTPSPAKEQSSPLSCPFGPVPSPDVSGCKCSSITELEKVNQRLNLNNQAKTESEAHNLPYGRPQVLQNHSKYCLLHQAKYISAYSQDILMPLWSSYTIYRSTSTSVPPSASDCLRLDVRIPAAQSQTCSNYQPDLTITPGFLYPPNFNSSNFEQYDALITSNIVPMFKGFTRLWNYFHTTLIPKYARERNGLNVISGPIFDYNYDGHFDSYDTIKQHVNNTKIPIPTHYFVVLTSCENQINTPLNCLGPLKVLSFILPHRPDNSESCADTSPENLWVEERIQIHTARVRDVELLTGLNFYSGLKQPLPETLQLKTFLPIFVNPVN

SMILES	IC50 ([1]; table head prints no unit, read-out: IC50 ± S.E.M. (phosphodiesterase))	IC50 [1]	IC50 [2]	IC50 ± S.E. (antiglycation) [3]	IC50 [4]	IC50 [3]
O=C(O)CN(CCN(CC(=O)O)CC(=O)O)CC(=O)O [EDTA, reference compound]	265 ± 2.24 µM	–	–	–	–	–
COc1cc(-c2oc3cc(O)c(OC)c(O)c3c(=O)c2O)ccc1O [compound 1, 3,5,7-trihydroxy-2-(4-hydroxy-3-methoxyphenyl)-6-methoxy-4H-chromen-4-one]	–	148.7 ± 1.09 µM	15.3 ± 2.13 µM	inactive	48.7 ± 2.19 µM	–
COc1c(O)cc2oc(-c3ccc(O)c(O)c3)c(O)c(=O)c2c1O [compound 2, 2-(3,4-dihydroxyphenyl)-3,5,7-trihydroxy-6-methoxy-4H-chromen-4-one]	–	95.2 ± 4.14 µM	19 ± 2.43 µM	–	74.8 ± 1.79 µM	244.8 ± 1.79 µM
C[C@@H]1O[C@@H](OC[C@H]2O[C@@H](Oc3c(-c4ccc(O)c(O)c4)oc4cc(O)cc(O)c4c3=O)[C@H](O)[C@@H](O)[C@@H]2O)[C@H](O)[C@H](O)[C@H]1O [rutin, Rutin, reference compound]	–	–	–	–	–	295 ± 3.14 µM
